IC50 data for 29 compounds are collected here from patent US9617240B2 (TEIJIN PHARMA LIMITED, priority 2013, dated 2017).

In the test the target is T1, oxidase type xanthine oxidase (derived from buttermilk) (Bos taurus, UniProt P80457).
T1 construct: oxidase type xanthine oxidase (derived from buttermilk, supplied by Calbiochem Novabiochem Corp.); purchased Calbiochem Novabiochem Corp; host or cells: buttermilk (natural source)
The experiment in a line: Xanthine oxidase inhibitory activity (absorbance change at 290 nm). Type of test: biochemical. Conditions: xanthine substrate, 100 mM phosphate buffer, absorbance at 290 nm for 5 minutes; read-out: Inhibitory Activity (50% inhibitory concentration with respect to oxidase type xanthine oxidase). The procedure:
The xanthine oxidase inhibitory activity was measured for the compounds synthesized according to the above Examples.
After a test compound was dissolved in DMSO (manufactured by Sigma Co.) so that the concentration is 20 mM, the test compound was prepared and used at a desired concentration at the time of use.
The evaluation of the xanthine oxidase inhibitory activity of the compounds of the present invention was conducted by partially modifying the method described in the literature (Method Enzymatic Analysis, 1, 521-522, 1974). The present evaluation is based on the oxidase type xanthine oxidase inhibitory activity evaluation. That is, a xanthine (manufactured by Sigma Co.) solution prepared at 10 mM in advance using a 20 mM sodium hydroxide solution was adjusted to 30 μM using a 100 mM phosphate buffer solution, and 75 μL/well of each solution was added into a 96-well plate. Aliquots (1.5 μL/well) of each test sample, which was diluted with DMSO so that the concentration is 100 times the final concentration, were added into a 96-well plate, and after mixing, the absorbance at 290 nm was measured by a microplate reader SPECTRA MAX Plus 384 (manufactured by Molecular Devices, LLC). Subsequently, oxidase type xanthine oxidase (derived from buttermilk, supplied by Calbiochem Novabiochem Corp.) was prepared at 30.6 mU/mL using a 100 mM phosphate buffer solution and 73.5 μL/well of each solution was added. Immediately after mixing, the change in absorbance at 290 nm was measured for 5 minutes. The enzyme activity when DMSO was used instead of a test compound solution was defined as 100%, the inhibitory rate of the test compounds was calculated and the 50% inhibitory concentration with respect to oxidase type xanthine oxidase was calculated by fitting to the dose-response curve.
Note that the symbols (+, ++, +++) in the table represent inhibitory activity values as shown below.

T1 sequence (P80457 whole entry): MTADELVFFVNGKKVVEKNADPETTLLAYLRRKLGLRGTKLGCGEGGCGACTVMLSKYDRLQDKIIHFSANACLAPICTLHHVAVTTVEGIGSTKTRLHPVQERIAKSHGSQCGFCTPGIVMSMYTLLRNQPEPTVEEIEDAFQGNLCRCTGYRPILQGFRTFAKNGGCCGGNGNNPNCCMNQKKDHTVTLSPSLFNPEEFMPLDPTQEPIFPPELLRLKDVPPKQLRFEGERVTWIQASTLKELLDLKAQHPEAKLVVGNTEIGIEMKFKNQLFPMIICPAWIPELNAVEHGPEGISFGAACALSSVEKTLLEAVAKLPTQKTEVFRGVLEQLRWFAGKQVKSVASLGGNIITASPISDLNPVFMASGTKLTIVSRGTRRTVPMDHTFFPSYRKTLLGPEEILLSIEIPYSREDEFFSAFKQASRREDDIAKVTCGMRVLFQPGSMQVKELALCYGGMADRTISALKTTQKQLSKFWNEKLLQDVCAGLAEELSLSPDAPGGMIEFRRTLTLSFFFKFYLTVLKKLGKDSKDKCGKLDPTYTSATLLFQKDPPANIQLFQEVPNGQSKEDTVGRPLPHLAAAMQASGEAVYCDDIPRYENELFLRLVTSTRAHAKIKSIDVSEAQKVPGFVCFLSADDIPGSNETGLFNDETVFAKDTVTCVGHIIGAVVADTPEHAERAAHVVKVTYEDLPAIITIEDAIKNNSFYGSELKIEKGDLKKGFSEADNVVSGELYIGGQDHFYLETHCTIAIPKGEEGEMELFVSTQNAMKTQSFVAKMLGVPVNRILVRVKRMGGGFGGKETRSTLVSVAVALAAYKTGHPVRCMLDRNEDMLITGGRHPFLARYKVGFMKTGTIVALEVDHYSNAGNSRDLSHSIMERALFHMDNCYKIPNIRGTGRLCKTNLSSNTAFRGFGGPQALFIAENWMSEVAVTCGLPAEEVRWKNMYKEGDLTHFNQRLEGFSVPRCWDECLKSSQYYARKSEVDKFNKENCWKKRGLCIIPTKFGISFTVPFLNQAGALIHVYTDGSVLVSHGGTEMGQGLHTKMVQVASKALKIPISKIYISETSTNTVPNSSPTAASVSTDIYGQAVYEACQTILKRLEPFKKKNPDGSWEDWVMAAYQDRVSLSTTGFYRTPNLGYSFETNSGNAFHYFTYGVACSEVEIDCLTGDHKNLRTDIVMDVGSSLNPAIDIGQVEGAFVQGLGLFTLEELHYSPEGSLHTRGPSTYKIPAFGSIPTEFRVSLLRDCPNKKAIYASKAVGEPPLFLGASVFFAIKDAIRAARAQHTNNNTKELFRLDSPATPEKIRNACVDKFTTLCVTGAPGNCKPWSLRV

Consider `N#Cc1cc(-n2cc(C(=O)O)cn2)ncc1-c1ccc(F)cc1F` [Compound 32, 1-[4-cyano-5-(2,4-difluorophenyl)pyridin-2-yl]-1H-pyrazole-4-carboxylic acid], for which the IC50 was 1 to 5 nM.
Turning to `N#Cc1cc(-n2cc(C(=O)O)cn2)ncc1-c1ccc(C(=O)N2CCOCC2)cc1` [Compound 70, 1-(4-cyano-5-{4-[(morpholine-4-yl)carbonyl]phenyl}pyridine-2-yl)-1H-pyrazole-4-carboxylic acid], the IC50 is 1 to 5 nM.
For `COc1cccc(-c2cnc(-n3cc(C(=O)O)cn3)cc2C#N)c1` [Compound 13, 1-[4-cyano-5-(3-methoxyphenyl)pyridin-2-yl]-1H-pyrazole-4-carboxylic acid] the value was 1 to 5 nM.
For `CN(C)c1cccc(-c2cnc(-n3cc(C(=O)O)cn3)cc2C#N)c1` [Compound 67, 1-{4-cyano-5-[3-(dimethylamino)phenyl]pyridine-2-yl}-1H-pyrazole-4-carboxylic acid] the value was 5 to 10 nM; for `Cc1cc(-c2cnc(-n3cc(C(=O)O)c(N)n3)cc2C#N)ccc1F` [Compound 106, 3-amino-1-[4-cyano-5-(4-fluoro-3-methylphenyl)pyridin-2-yl]-1H-pyrazole-4-carboxylic acid], 1 to 5 nM.
`Cc1cccc(-c2ccc(-n3cc(C(=O)O)cn3)nc2C#N)c1` [Compound 92, 1-[6-cyano-5-(3-methylphenyl)pyridin-2-yl]-1H-pyrazole-4-carboxylic acid]: the IC50 was at least 10 nM.
On to `N#Cc1cc(-n2cc(C(=O)O)cn2)ncc1-c1cccc(Cl)c1F` [Compound 41, 1-[4-cyano-5-(3-chloro-2-fluorophenyl)pyridin-2-yl]-1H-pyrazole-4-carboxylic acid], for which the IC50 was 1 to 5 nM.
Next, `N#Cc1cc(-n2cc(C(=O)O)cn2)ncc1-c1ccc(N)cc1` [Compound 68, 1-[5-(4-aminophenyl)-4-cyanopyridine-2-yl]-1H-pyrazole-4-carboxylic acid]: 1 to 5 nM; `COc1cccc(F)c1-c1ccc(-n2cc(C(=O)O)cn2)nc1C#N` [Compound 96, 1-[6-cyano-5-(2-fluoro-6-methoxyphenyl)pyridin-2-yl]-1H-pyrazole-4-carboxylic acid]: at least 10 nM.
For `CN(C)c1ccc(-c2cnc(-n3cc(C(=O)O)cn3)cc2C#N)cn1` [Compound 59, 1-{4-cyano-5-[6-(dimethylamino)pyridin-3-yl]pyridin-2-yl}-1H-pyrazole-4-carboxylic acid] the value was 1 to 5 nM; for `N#Cc1cc(-n2cc(C(=O)O)cn2)ncc1-c1cccc(F)c1F` [Compound 20, 1-[4-cyano-5-(2,3-difluorophenyl)pyridin-2-yl]-1H-pyrazole-4-carboxylic acid], 1 to 5 nM; for `Cc1ccc(-c2ncc(-n3cc(C(=O)O)cn3)cc2C#N)cc1F` [Compound 83, 1-[5-cyano-6-(3-fluoro-4-methylphenyl)pyridin-3-yl]-1H-pyrazole-4-carboxylic acid], 5 to 10 nM.
For `COc1ccncc1-c1cnc(-n2cc(C(=O)O)cn2)cc1C#N` [Compound 58, 1-[4-cyano-5-(4-methoxypyridin-3-yl)pyridin-2-yl]-1H-pyrazole-4-carboxylic acid] the value was at least 10 nM; for `CS(=O)(=O)Nc1ccc(-c2cnc(-n3cc(C(=O)O)cn3)cc2C#N)cc1` [Compound 69, 1-[4-cyano-5-(4-methanesulfonamidophenyl)pyridine-2-yl]-1H-pyrazole-4-carboxylic acid], 1 to 5 nM.
Take `N#Cc1cc(-n2cc(C(=O)O)cn2)ncc1-c1ccc(N2CCOCC2)cc1` [Compound 64, 1-{4-cyano-5-[4-(morpholine-4-yl)phenyl]pyridine-2-yl}-1H-pyrazole-4-carboxylic acid]: the IC50 lay in the range of 1 to 5 nM.
In the case of `N#Cc1cc(-n2cc(C(=O)O)cn2)cnc1-c1ccccc1` [Compound 75, 1-(5-cyano-6-phenylpyridin-3-yl)-1H-pyrazole-4-carboxylic acid], the IC50 is at least 10 nM.
Next, `N#Cc1cc(-n2cc(C(=O)O)cn2)ncc1-c1cccc(Cl)c1` [Compound 12, 1-[4-cyano-5-(3-chlorophenyl)pyridin-2-yl]-1H-pyrazole-4-carboxylic acid]: 5 to 10 nM; `N#Cc1cc(-n2cc(C(=O)O)cn2)ncc1-c1cccc(C(F)(F)F)c1` [Compound 45, 1-{4-cyano-5-[3-(trifluoromethyl)phenyl]pyridin-2-yl}-1H-pyrazole-4-carboxylic acid]: 5 to 10 nM.
Regarding `Cc1ccc(-c2cnc(-n3cc(C(=O)O)cn3)cc2C#N)c(F)c1` [Compound 33, 1-[4-cyano-5-(2-fluoro-4-methylphenyl)pyridin-2-yl]-1H-pyrazole-4-carboxylic acid], the IC50 lay within 1 to 5 nM.
`Cc1ccc(F)c(-c2cnc(-n3cc(C(=O)O)cn3)cc2C#N)c1` [Compound 34, 1-[4-cyano-5-(2-fluoro-5-methylphenyl)pyridin-2-yl]-1H-pyrazole-4-carboxylic acid]: the IC50 was in the range of 1 to 5 nM.
Next, `COc1cccc(F)c1-c1cnc(-n2cc(C(=O)O)cn2)cc1C#N` [Compound 18, 1-[4-cyano-5-(2-fluoro-6-methoxyphenyl)pyridin-2-yl]-1H-pyrazole-4-carboxylic acid]: 5 to 10 nM; `COCc1ccc(-c2cnc(-n3cc(C(=O)O)cn3)cc2C#N)cc1` [Compound 55, 1-{4-cyano-5-[4-(methoxymethyl)phenyl]pyridin-2-yl}-1H-pyrazole-4-carboxylic acid]: 1 to 5 nM.
Next, `Cc1cccc(-c2cnc(-n3cc(C(=O)O)cn3)cc2C#N)c1F` [Compound 36, 1-[4-cyano-5-(2-fluoro-3-methylphenyl)pyridin-2-yl]-1H-pyrazole-4-carboxylic acid]: 1 to 5 nM.
Consider `N#Cc1cc(-n2cc(C(=O)O)cn2)cnc1-c1cc(F)ccc1F` [Compound 80, 1-[5-cyano-6-(2,5-difluorophenyl)pyridin-3-yl]-1H-pyrazole-4-carboxylic acid], for which the IC50 was at least 10 nM.
For `N#Cc1cc(-n2cc(C(=O)O)cn2)ncc1-c1ccc2ccccc2c1` [Compound 57, 1-[4-cyano-5-(naphthalen-2-yl)pyridin-2-yl]-1H-pyrazole-4-carboxylic acid] the value was 1 to 5 nM; for `Cc1ccsc1-c1cnc(-n2cc(C(=O)O)cn2)cc1C#N` [Compound 22, 1-[4-cyano-5-(3-methylthiophen-2-yl)pyridin-2-yl]-1H-pyrazole-4-carboxylic acid], 1 to 5 nM.
For `N#Cc1cc(-n2cc(C(=O)O)cn2)ncc1-c1ccccc1F` [Compound 5, 1-[4-cyano-5-(2-fluorophenyl)pyridin-2-yl]-1H-pyrazole-4-carboxylic acid] the value was 1 to 5 nM.
For `N#Cc1nc(-n2cc(C(=O)O)cn2)ccc1-c1c(F)cccc1F` [Compound 95, 1-[6-cyano-5-(2,6-difluorophenyl)pyridin-2-yl]-1H-pyrazole-4-carboxylic acid] the value was 5 to 10 nM; for `N#Cc1cc(-n2cc(C(=O)O)cn2)ncc1-c1ccccc1OC(F)(F)F` [Compound 9, 1-{4-cyano-5-[2-(trifluoromethoxy)phenyl]pyridin-2-yl]-1H-pyrazole-4-carboxylic acid], at least 10 nM.
